Each structure is given as a SMILES string. Where “and” joins values, the source holds several entries; their conditions need not be identical. Equal values may be shown once. Read-outs that look alike come from different tables or passages of the source.

The test system of assay [1] is human LDL receptor promoter. The experiment in a line: in vitro Luciferase Activity Test (LDL receptor promoter-luciferase reporter in recombinant CHO cells). The class given is cell-based. Details: MED: unit not given here. Conditions: for Emax: Homo sapiens, CHO, read-out: MA%; for MED: minimum effective dose (molar concentration, unit not given), tests using 30% luciferase activity cutoff point (footnote 1), 24 hr, assay medium with 0.5 µg/ml 25-hydroxycholesterol; for RED: relative effective dose compared to compound of Example 4, below one = more active. The method, boiled down: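 Stably transfected CHO clone S27/B30 carries the 1546 bp human LDL receptor promoter driving firefly luciferase; an SV40 promoter-luciferase CHO line serves as nonspecific-transcription control. Assay medium is DMEM/Ham's F-12 (3:1) with 20 mM HEPES, 0.5% bovine albumin and 0.5 µg/ml 25-hydroxycholesterol.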

A further assay relates to Syrian Golden hamsters. Description: In vivo serum cholesterol lowering in hamsters fed a cholesterol test diet. Conditions: hamsters; for inhibition in vivo at 100 mg/kg/day: Mesocricetus auratus, feed or water, 168 h, 0.2% (w/w) in diet for one week (100 mg/kg/day), negative values = serum cholesterol increased relative to control, read-out: Percent Lowering of Cholesterol from Control Value Mean; for Serum Cholesterol Mean: 0.2% (w/w) in Cholesterol Test Diet for one week, equivalent to 100 mg/kg/day, groups of six, control mean 337. As to the method: Syrian Golden hamsters were fed a cholesterol test diet made of 10% coconut oil and 0.12% cholesterol (by weight) in Purina 5001 Rodent Chow to induce hypercholesteriolemia.
After two weeks on the cholesterol test diet the hamsters were bled from the orbital sinium under light CO2 anesthesia. Serum was prepared and analyzed for cholesterol using a commercial test kit (Cholesterol High Performance, Single Vial™, product of Boehringer Mannheim Corp., Indianapolis, IN, USA). The hamsters were separated into groups of six animals, such that each group had approximately the same mean serum cholesterol levels. Selected compounds of the invention were incorporated into the Cholesterol Test Diet at 0.2% (w/w) and fed to the hamsters for one week. A control group of hamsters continued on the Cholesterol Test Diet during the same one-week period. The dose of test compounds of the invention was equivalent to 100 mg/kg/day based on the weight of the hamsters and their diet consumption. Upon completion of the test period, the animals were bled and serum cholesterol determined as above.
Mean serum cholesterol values from the test hamsters were compared to values from the control group and tested for significance at the Z.05 level using Dunnett's test.

The next assay relates to African green monkeys. Description: Monkey pilot study of plasma cholesterol levels on a hypercholesterolemic diet. Conditions: for Plasma Cholesterol Levels, individual animals: animals 1-6; for Plasma Cholesterol Levels, Mean: mean of six animals. The class given is in vivo. The procedure:
To study the effect in short term lowering of plasma cholesterol concentrations in African green monkeys.
Six African green monkeys were given a hypercholesterolemic diet containing 16.4% lard and 0.33% cholesterol for two weeks to establish a baseline cholesterol level. Thereafter, two daily doses of [14a,5a]-4-(2-propenyl)cholestan-3a-ol, the compound of Example 5, were administered in their feed at 25 mg/kg/day total daily dosage. After ten days the drug dose was increased to 50 mg/kg/day for an additional 3 weeks, followed by a washout period when no drug was administered and the hypercholesterolemic diet was maintained. Blood samples were drawn on the days indicated and plasma was prepared foranalysis. Cholesterol was determined by standard enzymatic techniques(method of Allain et aI., using diagnostics high performance Cholesterol Reagent No. 236691, product of Boehringer Mannheim Co., Indianapolis, Indiana USA).

Setting [2] is: maximum activity (%) over control, 15% luciferase activity cutoff point (footnote 2).
Setting [3] is: maximum activity (%) over control, NA is not active, 30% luciferase activity cutoff point (footnote 1).
Setting [4] is: 30% luciferase activity cutoff point (footnote 1).

`C=CC[C@@H]1[C@H](O)CC[C@@]2(C)[C@H]1CC[C@@H]1[C@@H]2CC[C@]2(C)[C@@H]([C@H](C)CCCC(C)C)CC[C@@H]12` [Example 5, [4a,5a]-4-(2-propenyl)cholestan-3a-ol]: in assay [1] (setting [2]), the Emax was 121%. Also, the MA% in assay [1] (setting [2]) is 120% and 135%. Also, the inhibition in vivo at 100 mg/kg/day in the assay on Syrian Golden hamsters is 49.2%. For the same compound, the “Serum Cholesterol Mean” value in the assay with Syrian Golden hamsters (listed as (2)) came to 171 mg/dL. The “Plasma Cholesterol Levels, individual animals” value in the assay with African green monkeys (Day 4, dose 50 mg/kg/day in feed, 50 mg/kg/day) is 184 and 878 and 155 and 159 and 148 and 211; in the assay with African green monkeys (Day 5, dose 25 mg/kg/day in feed, 25 mg/kg/day), 268 and 411 and 175 and 182 and 189 and 252; in the assay with African green monkeys (Day 7 Washout (no drug, diet maintained)), 209 and 251 and 165 and 192 and 174 and 200; with African green monkeys (Day 8, dose 25 mg/kg/day in feed, 25 mg/kg/day), 208 and 386 and 172 and 184 and 174 and 249; in the assay on African green monkeys (Day 12 (dose not given; 50 mg/kg/day per method), 50 mg/kg/day), 172 and 276 and 159 and 169 and 157 and 206; in the assay on African green monkeys (Day 14 Washout (no drug, diet maintained)), 226 and 311 and 176 and 159 and 173 and 213. Also, the “Plasma Cholesterol Levels, individual animals” value was 188 and 314 and 143 and 161 and 142 and 206 in the assay with African green monkeys (Day 20 (dose not given; 50 mg/kg/day per method), 50 mg/kg/day); 270 and 344 and 193 and 168 and 216 and 246 in the assay with African green monkeys (Day 21 Washout (no drug, diet maintained)). In addition, the “Plasma Cholesterol Levels, Mean” value with African green monkeys (Day 4, dose 50 mg/kg/day) worked out at 205; with African green monkeys (Day 5, dose 25 mg/kg/day, Day 0 mean 252) it was 244; in the assay with African green monkeys (Day 7 Washout), 199; with African green monkeys (Day 8, dose 25 mg/kg/day), 226; in the assay with African green monkeys (Day 12 (50 mg/kg/day per method)) it was 190; in the assay with African green monkeys (Day 14 Washout), 210. Also, the results for the “Plasma Cholesterol Levels, Mean” value in the assay on African green monkeys (Day 20 (50 mg/kg/day per method)) and in the assay with African green monkeys (Day 21 Washout) were 192 and 240, respectively. The “lowering plasma cholesterol levels” value in the assay with African green monkeys (conclusion of the pilot study, 25 then 50 mg/kg/day in feed) was “effective in lowering plasma cholesterol levels”.
As to `C=CC[C@@H]1[C@H](NC(C)=O)CC[C@@]2(C)[C@H]1CC[C@@H]1[C@@H]2CC[C@]2(C)[C@@H]([C@H](C)CCCC(C)C)CC[C@@H]12` [Example 81, N-[(3α,4α,5α,20β)-4-(2-propenyl)cholestan-3-61]acetamide], the Emax in assay [1] (setting [3]) amounted to 32%. Also, the MED in assay [1] came to 44.9. The RED in assay [1] (setting [4]) is on record as 7.9. Besides, in the assay on Syrian Golden hamsters, the inhibition in vivo at 100 mg/kg/day is -7.8% and the “Serum Cholesterol Mean” value is reported as 364 mg/dL.
Taken in the same sequence, the figures for `C=CC[C@@H]1[C@H](N)CC[C@@]2(C)[C@H]1CC[C@@H]1[C@@H]2CC[C@]2(C)[C@@H]([C@H](C)CCCC(C)C)CC[C@@H]12` [Example 86] were 89%, 5.6, 2.0, -37.4% and 464 mg/dL.
`CCC[C@@H]1[C@H](O)CC[C@@]2(C)[C@H]1CC[C@@H]1[C@@H]2CC[C@]2(C)[C@@H]([C@H](C)CCCC(C)C)CC[C@@H]12` [Example 87]: the Emax in assay [1] (setting [3]) stood at 14%. In addition, in assay [1], the MED turned out to be 23.2. In assay [1] (setting [4]), the RED worked out at 8.3. For the same compound, in the assay on Syrian Golden hamsters, the inhibition in vivo at 100 mg/kg/day was found to be 31.2% and the “Serum Cholesterol Mean” value is given as 222 mg/dL.

For the origin of these results see EP0562849A2, “Steroid derivatives” (priority 1992, dated 1993).
